Results on 13 compounds are retold here after PubChem BioAssay (NCI).

Some test systems named below: COLO 205 colon; HT29 colon; NCI/ADR-RES ovarian; MOLT-4 leukemia; CAKI-1 renal; MDA-N; HS 578T breast; OVCAR-5 ovarian; NCI-H460 lung; SNB-19 CNS; K-562 leukemia.
Holding throughout (assay): NCI anticancer screen, dose series, 48 h

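Each compound was tested at five concentrations against cells in 96-well plates for 48 hours. TGI: concentration producing complete growth inhibition.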

As for `NCCCc1nonc1C(=O)O`, the TGI in the test with COLO 205 colon, in the test with HT29 colon, with NCI/ADR-RES ovarian, in the test with MOLT-4 leukemia, in the test with CAKI-1 renal and with MDA-N was more than 100 µM in each case. Further, the TGI with HS 578T breast, in the test with OVCAR-5 ovarian, in the test with NCI-H460 lung, in the test on SNB-19 CNS and in the test with K-562 leukemia was more than 100 µM each time.
As to `NS(=O)(=O)c1ccc(NNc2c3ccccc3nc3c(C(=O)Nc4ccc(S(N)(=O)=O)cc4)cccc23)cc1`, the TGI in the test on COLO 205 colon is more than 100 µM; in the test on HT29 colon, 72.4 µM; in the test on NCI/ADR-RES ovarian, more than 100 µM; in the test on MOLT-4 leukemia it was 49.6 µM; in the test on CAKI-1 renal, more than 100 µM; in the test with MDA-N, more than 100 µM. Also, the TGI with HS 578T breast is more than 100 µM; in the test with OVCAR-5 ovarian it was more than 100 µM; in the test on NCI-H460 lung it was more than 100 µM; in the test with SNB-19 CNS, more than 100 µM; in the test on K-562 leukemia it was 62.1 µM.
For `COc1cc(Nc2nc(NS(=O)(=O)c3cc(C)c(Cl)cc3S)n[nH]2)cc(OC)c1OC`, the TGI in the test on COLO 205 colon, in the test on HT29 colon, in the test with NCI/ADR-RES ovarian, in the test with MOLT-4 leukemia, with CAKI-1 renal and in the test on MDA-N was more than 100 µM in each case. For the same compound, the TGI in the test with HS 578T breast, with OVCAR-5 ovarian, in the test on NCI-H460 lung, in the test on SNB-19 CNS and in the test with K-562 leukemia was more than 100 µM each time.
`c1ccc2sc(C3(N4CCCCCC4)CCCCC3)cc2c1`: the TGI was 30 µM with COLO 205 colon; 36.8 µM in the test with HT29 colon; 55.2 µM with NCI/ADR-RES ovarian; 31.5 µM with MOLT-4 leukemia; more than 100 µM in the test on CAKI-1 renal; 97.6 µM with MDA-N. In addition, the TGI was determined as 44.7 µM with HS 578T breast; 37.4 µM in the test on OVCAR-5 ovarian; 45.1 µM with NCI-H460 lung; 44.6 µM in the test on SNB-19 CNS; 33.1 µM in the test with K-562 leukemia.
For the compound `O=c1oc2cc(O)ccc2c(O)c1C(c1ccc(/C=C/c2ccccc2)cc1)c1c(O)c2ccc(O)cc2oc1=O`, the TGI was more than 100 µM in the test on COLO 205 colon; more than 100 µM in the test with HT29 colon; more than 100 µM with NCI/ADR-RES ovarian; 64.1 µM in the test on MOLT-4 leukemia; more than 100 µM in the test on CAKI-1 renal; more than 100 µM with MDA-N. For the same compound, the TGI in the test on HS 578T breast, in the test on OVCAR-5 ovarian, in the test on NCI-H460 lung, with SNB-19 CNS and in the test with K-562 leukemia was more than 100 µM in each case.
In the case of `COc1ccccc1Nc1nc(N)nc(N)c1N`, the TGI was more than 100 µM in the test on COLO 205 colon; more than 100 µM with HT29 colon; more than 100 µM with NCI/ADR-RES ovarian; 31.6 µM in the test with MOLT-4 leukemia; more than 100 µM in the test on CAKI-1 renal; 32.9 µM with MDA-N. Moreover, the TGI with HS 578T breast, in the test with OVCAR-5 ovarian, in the test with NCI-H460 lung, in the test on SNB-19 CNS and in the test on K-562 leukemia was more than 100 µM each time.
For `C(#C[C@@]12CCC[C@@H]1NCO2)c1ccc2c(c1)OCO2`, the TGI in the test with COLO 205 colon is 31.5 µM; in the test on HT29 colon it was more than 100 µM; in the test with NCI/ADR-RES ovarian, more than 100 µM; in the test with MOLT-4 leukemia, 67.7 µM; in the test on CAKI-1 renal, more than 100 µM; with MDA-N, more than 100 µM. For the same compound, the TGI in the test with HS 578T breast is more than 100 µM; with OVCAR-5 ovarian it was more than 100 µM; in the test with NCI-H460 lung, more than 100 µM; in the test with SNB-19 CNS, more than 100 µM; with K-562 leukemia, 60.2 µM.
In the case of `CC(C)=CCN1c2ccccc2[C@@]2(CC=C(C)C)CCN(C)[C@@H]12`, the TGI is 26.8 µM in the test with COLO 205 colon; 90.4 µM in the test on HT29 colon; 53.5 µM in the test with NCI/ADR-RES ovarian; more than 100 µM in the test with MOLT-4 leukemia; more than 100 µM in the test with CAKI-1 renal; more than 100 µM with MDA-N. In addition, the TGI in the test with HS 578T breast is 45.8 µM; in the test on OVCAR-5 ovarian it was more than 100 µM; in the test on NCI-H460 lung, 30.4 µM; in the test on SNB-19 CNS it was 52.6 µM; in the test on K-562 leukemia, 48.2 µM.
For the compound `CC(=O)OCCn1c(Cc2ccc(Cl)cc2)nn(C(C)=O)c1=O`, the TGI with COLO 205 colon, in the test with HT29 colon, in the test on NCI/ADR-RES ovarian, in the test on MOLT-4 leukemia, with CAKI-1 renal and in the test with MDA-N was more than 100 µM in each case. The TGI in the test with HS 578T breast, in the test on OVCAR-5 ovarian, in the test on NCI-H460 lung, in the test on SNB-19 CNS and with K-562 leukemia was more than 100 µM each time.
As to `CC(=O)OC(C(=O)NNC(=O)OC(C)(C)C)c1ccccc1` (stereo not drawn), the TGI in the test with COLO 205 colon, in the test on HT29 colon, with NCI/ADR-RES ovarian, with MOLT-4 leukemia, with CAKI-1 renal and in the test on MDA-N was more than 100 µM in each case. Also, the TGI with HS 578T breast, in the test with OVCAR-5 ovarian, with NCI-H460 lung, in the test on SNB-19 CNS and in the test with K-562 leukemia was more than 100 µM in each case.
On to `Cc1c(CNc2ccc(Cl)c(Cl)c2Cl)cnc2nc(N)nc(N)c12`, for which the TGI was 33.8 µM with COLO 205 colon; more than 53.9 µM in the test on HT29 colon; more than 100 µM in the test with NCI/ADR-RES ovarian; 17.6 µM in the test on MOLT-4 leukemia; more than 100 µM with CAKI-1 renal; more than 32 µM in the test with MDA-N. The TGI in the test with HS 578T breast was 65.6 µM; in the test with OVCAR-5 ovarian, more than 50.4 µM; in the test on NCI-H460 lung it was more than 48.9 µM; in the test on SNB-19 CNS, more than 59.9 µM; in the test with K-562 leukemia, 5.14 µM.
For `CCOP(=O)(OCC)/C(F)=C/c1ccc(F)cc1`, the TGI in the test on COLO 205 colon, in the test on HT29 colon, with NCI/ADR-RES ovarian, in the test on MOLT-4 leukemia, with CAKI-1 renal and with MDA-N was more than 100 µM in each case. Further, the TGI in the test on HS 578T breast, in the test with OVCAR-5 ovarian, with NCI-H460 lung, in the test with SNB-19 CNS and with K-562 leukemia was more than 100 µM in each case.
With `Cc1c(S(=O)(=O)/N=C(\NO)Nc2ccc(Cl)cc2)sc2ccc(Cl)cc12`, the TGI was 30.9 µM in the test with COLO 205 colon; 34.3 µM in the test on HT29 colon; 37.9 µM in the test with NCI/ADR-RES ovarian; more than 100 µM in the test with MOLT-4 leukemia; 34.3 µM in the test on CAKI-1 renal; 32.9 µM in the test with MDA-N. Further, the TGI was 44.3 µM in the test with HS 578T breast; 33.3 µM with OVCAR-5 ovarian; 76.8 µM with NCI-H460 lung; 35.2 µM in the test with SNB-19 CNS; more than 100 µM with K-562 leukemia.
